Assay results reported in ChEMBL document CHEMBL4340564, “Quercetin-3-oleoyl derivatives as new GPR40 agonists: Molecular docking studies and functional evaluation” (Bioorg Med Chem Lett, 2019).
Activity calls are given as the source filed them. The calls are words filed in the database; no cut-off is given here.

Key:
Assay type in all cases: cell-based
[1] = target: Free fatty acid receptor 1 (Homo sapiens) (UniProt O14842); test: Agonist activity at human GPR40 expressed in rat INS1(832/13) cells harboring human proinsulin assessed as increase in glucose-stimulated insulin secretion at 20 to 40 uM incubated for 5 mins by ELISA
[2] = target: Free fatty acid receptor 1 (Homo sapiens) (UniProt O14842); test: Agonist activity at human GPR40 expressed in rat INS1(832/13) cells harboring human proinsulin assessed as increase in glucose-stimulated insulin secretion at 10 uM incubated for 5 mins in presence of GPR40 antagonist DC260126 by ELISA
[3] = target: Free fatty acid receptor 1 (Homo sapiens) (UniProt O14842); test: Agonist activity at human GPR40 expressed in rat INS1(832/13) cells harboring human proinsulin assessed as increase in glucose-stimulated insulin secretion at 40 uM incubated for 5 mins in presence of GPR40 antagonist DC260126 by ELISA
[4] = target: Free fatty acid receptor 1 (Homo sapiens) (UniProt O14842); test: Antagonist activity at human GPR40 expressed in rat INS1(832/13) cells harboring human proinsulin assessed as inhibition of 20 uM AV1-induced increase in glucose-stimulated insulin secretion at 40 uM by ELISA
[5] = target: Free fatty acid receptor 1 (Homo sapiens) (UniProt O14842); test: Partial agonist activity at human GPR40 expressed in rat INS1(832/13) cells harboring human proinsulin assessed as potentiation of 2.5 uM AV1-induced increase in glucose-stimulated insulin secretion at 40 uM by ELISA
[6] = target: Free fatty acid receptor 1 (Homo sapiens) (UniProt O14842); test: Antagonist activity at human GPR40 expressed in rat INS1(832/13) cells harboring human proinsulin assessed as inhibition of 20 uM AV1-induced increase in glucose-stimulated insulin secretion at 21 uM by ELISA
[7] = target: Free fatty acid receptor 1 (Homo sapiens) (UniProt O14842); test: Partial agonist activity at human GPR40 expressed in rat INS1(832/13) cells harboring human proinsulin assessed as potentiation of 10 uM AV1-induced increase in glucose-stimulated insulin secretion by ELISA
[8] = target: Free fatty acid receptor 1 (Homo sapiens) (UniProt O14842); test: Partial agonist activity at human GPR40 expressed in rat INS1(832/13) cells harboring human proinsulin assessed as potentiation of 2.5 uM AV1-induced increase in glucose-stimulated insulin secretion at 21 uM by ELISA

Chain of Free fatty acid receptor 1 (Homo sapiens) (O14842 whole entry): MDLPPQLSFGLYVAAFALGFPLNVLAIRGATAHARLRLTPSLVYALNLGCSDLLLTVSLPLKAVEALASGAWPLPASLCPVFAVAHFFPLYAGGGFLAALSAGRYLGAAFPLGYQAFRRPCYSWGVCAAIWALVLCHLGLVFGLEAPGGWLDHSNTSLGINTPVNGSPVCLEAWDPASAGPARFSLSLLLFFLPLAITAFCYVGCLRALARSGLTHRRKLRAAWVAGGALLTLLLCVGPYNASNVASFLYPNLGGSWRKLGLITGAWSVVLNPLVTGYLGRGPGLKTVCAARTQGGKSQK

Row | Activity [1] | Activity [2] | Activity [3] | Activity [4] | Activity [5] | Activity [6] | Activity [7] | Activity [8] | Structure (SMILES)
1 | Active | inactive | – | – | – | – | – | – | CCCCCCCC/C=C\CCCCCCCC(=O)Oc1c(-c2ccc3c(c2)OC(c2ccccc2)(c2ccccc2)O3)oc2cc(O)cc(O)c2c1=O
2 | Active | – | inactive | Active | Active | Active | Dose-dependent effect | Active | CCCCCCCC/C=C\CCCCCCCC(=O)Oc1c(-c2ccc(O)c(O)c2)oc2cc(O)cc(O)c2c1=O
